Activity calls are given as the source filed them.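 How the source made its calls: active means AC50, the dose giving half-maximal effect, exceeds a fixed cutoff for a compound that rescues yeast growth under heat; inactive means the rest, inconclusive results apart.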
The compounds below were run on S. cerevisiae Burl-1 ts mutant growth, BacTiter-Glo, 38.5C 24 h (assay: growth induction of Burl-1 ts yeast mutant, dose response, counter-screen for SUMOylation pathway inhibitor project, whole organism, S. cerevisiae, luminescence (AID 463199)).

SMILES | AC50
N#CC1=C(N)Oc2n[nH]c(CSc3ccccc3)c2C12C(=O)Nc1ccccc12 (centres undefined) | > 42 µM (inactive)
Cc1csc(CNc2ncnc3ccc(-c4ccccc4Cl)cc23)c1 | > 42 µM (inactive)
CCOC(=O)N1CCN(S(=O)(=O)c2ccc(Br)s2)CC1 | > 42 µM (inactive)
CCCCNC(=O)N1CCC(CCC(=O)N(C)Cc2ccccc2)CC1 | > 42 µM (inactive)
COc1ccc(NC(=O)CN(c2ccc(C(C)C)cc2)S(=O)(=O)c2c(C)noc2C)cc1OC | > 42 µM (inactive)
COc1ccccc1NC(=O)c1ccc(-n2ccnc2)c([N+](=O)[O-])c1 | > 42 µM (inactive)
CCOC(=O)NNC(=O)CCn1c2c(c3ccccc31)CCCC2 | > 42 µM (inactive)
Cn1cc(Br)c(C(=O)Nc2nccs2)n1 | > 42 µM (inactive)
COc1ccc(N=Cc2c(O)n(C)c(=O)[nH]c2=O)cc1 | > 42 µM (inactive)
O=C(CCN1C(=O)S/C(=C/c2ccccc2)C1=O)Nc1ccc(O)c(C(=O)O)c1 | > 42 µM (inactive)
COc1ccc(-c2nc3c(c(SCC(=O)N4CCOCC4)n2)Cc2c(CO)cnc(C)c2O3)cc1 | > 42 µM (inactive)
O=c1[nH]c(O)c(N=Nc2cc([N+](=O)[O-])ccc2O)c(=O)[nH]1 | > 42 µM (inactive)
Cc1cccc(NC(=O)CSCC(=O)N2CCCc3ccccc32)c1 | > 42 µM (inactive)
COc1ccc2c(C(=O)CN3CC(C)OC(C)C3)c[nH]c2c1 (centres undefined) | > 42 µM (inactive)
CC(=O)c1ccc2noc(-c3ccc(F)cc3)c2c1 | > 42 µM (inactive)
CC1CN=C(NCc2ccccc2)S1 (centres undefined) | > 42 µM (inactive)
Brc1ccc(-c2cn3cccnc3n2)cc1 | > 42 µM (inactive)
O=C(O)C1CCCCC1C(=O)Nc1ccc(S(=O)(=O)N2CCCC2)cc1 (centres undefined) | > 42 µM (inactive)
CCCn1c(=O)c2ccccc2n2c(SCC(=O)N3CCc4ccccc4C3)nnc12 | > 42 µM (inactive)
CCOc1ccc(S(=O)(=O)N2CCC(C(=O)N3CCN(c4ccccc4)CC3)CC2)cc1 | > 42 µM (inactive)

SMILES | AC50
Cc1cc(S(=O)(=O)NCC(C)C)ccc1OCC(=O)N1CCOCC1 | > 42 µM (inactive)
CC1=C(C#N)S(=O)(=O)C(C#N)C(c2ccccc2)C1 (centres undefined) | > 42 µM (inactive)
COc1cc([N+](=O)[O-])cc(/C=N/NC(=O)c2cc(C)nc3ccccc23)c1O | > 42 µM (inactive)
O=C(COC(=O)c1cc([N+](=O)[O-])ccc1N1CCOCC1)Nc1cccc(F)c1 | > 42 µM (inactive)
O=C(CCNS(=O)(=O)c1cccc2nsnc12)NCCC1=CCCCC1 | > 42 µM (inactive)
O=C(c1ccccc1F)N1CCN=C1SCc1cccnc1 | > 42 µM (inactive)
O=C(O)COc1ccc(=O)n(-c2ccccc2)n1 | > 42 µM (inactive)
Cc1cc(C)cc(C(=O)NC(CC(N)=O)c2ccc(N3CCC(N4CCCCC4)CC3)c([N+](=O)[O-])c2)c1 (centres undefined) | > 42 µM (inactive)
COc1ccc([N+](=O)[O-])c2c(=O)ccoc12 | > 42 µM (inactive)
O=C1c2ccccc2C(=O)N1CCSc1ccccc1 | > 42 µM (inactive)
CN(C)c1oc(-c2ccccc2Cl)nc1S(=O)(=O)c1ccccc1 | > 42 µM (inactive)
CCOc1cc(C(=S)N2CCOCC2)ccc1OC(=O)c1ccc(C)cc1 | > 42 µM (inactive)
Cc1ccc(N2C(=O)c3cccc4c(N5CCN(C)CC5)ccc(c34)C2=O)c2cccnc12 | > 42 µM (inactive)
COC(=O)c1sc2ccccc2c1NC(=O)c1ccc(S(=O)(=O)N2CCCC(C)C2)cc1 (centres undefined) | > 42 µM (inactive)
O=C(Nc1ccc(Cl)cc1)N1CCC(c2nc(-c3ccc(F)cc3)no2)CC1 | > 42 µM (inactive)
CCOc1ccc(NC(=O)CNc2ccc(C)cc2Cl)cc1 | > 42 µM (inactive)
CN(C)S(=O)(=O)c1cc(NC(=O)CSc2nn(-c3ccc(Cl)cc3)c(=S)s2)ccc1Cl | > 42 µM (inactive)
COCCN(C(=O)c1csnn1)C(C(=O)NC1CCCCC1)c1ccccc1 (centres undefined) | > 42 µM (inactive)
CC(C)Cc1nc(N2CCOCC2)c(C#N)c2c1CCC2 | > 42 µM (inactive)

Reference: PubChem BioAssay AID463199 (Broad Institute, 2010)
